SMILES strings stand for the structures. A value given as a limit tells only on which side of the number the result lay.

Assay [1] addresses Adrenergic alpha1B (Homo sapiens, UniProt P35368). The experiment in a line: Adrenergic alpha1B binding. The method, then: (§1) Curves are evaluated using a 4-parameter logistic nonlinear equation to obtain the concentration of competitor causing 50% inhibition of radioligand binding (IC50). Equilibrium dissociation constants (Ki) are calculated according to the equation Ki=IC50/(1+L/Kd), where L equals the concentration of radioligand used in the experiment and Kd equals the equilibrium dissociation constant of the radioligand for the receptor, determined from standard saturation analysis or homologous competition experiments. Reported values for Ki, where n values are indicated, are shown as geometric mean±the standard error of the mean (SEM), with the number of replicate determinations indicated by n. Geometric means are calculated by the equation GeoMean=10̂(Average(log Ki 1+log Ki 2+ . . . log Ki n)/[…]).
(§2) Further, the compounds of the invention may be tested in binding assays and functional activity assays by well known methods for other physiologically important receptors such as, but not limited to, the hERG channel, other serotonin receptors (specifically 5-HT1B receptors, lack of agonist activity at 5-HT2B receptors, 5-HT2C, 5-HT5, 5-HT6, and 5-HT7 receptors), dopaminergic receptors (specifically D1, D2, and D3), H1 receptors, GABAA receptors, adrenergic receptors and monoamine transporters.

In assay [2] the target is T1, 5-HT2A receptor (Rattus norvegicus, UniProt P14842).
T1 construct: from tissue; host or cells: rat brain (frontal cortex vs cerebellum), in vivo
The experiment in a line: 5-HT2A receptor occupancy in vivo (MDL 100907 tracer). The arrangement: species or system male Sprague-Dawley rats. The conditions noted are these: oral gavage, 1 hr. before tracer. As to the method:
Briefly, male Sprague-Dawley rats (Harlan Sprague-Dawley, Indianapolis, Ind.) weighing approximately 230-280 g are given ad lib access to food and water until the beginning of the 3 hr. experimental protocol. 1 mg/Kg ketanserin (non-selective 5-HT2A antagonist) is used as a positive control to establish assay validity. Test compounds or control are administered by oral gavage in a vehicle comprised of 20% hydroxypropyl beta-cyclodextrin. MDL 100907 ((R)-(+)-α-(2,3-Dimethoxyphenyl)-1-[2-(4-fluorophenyl)ethyl]-4-piperidinemethanol), a selective 5-HT2A antagonist, is used as a tracer. […] It is at the time of tracer administration that receptor occupancy (RO) is considered to be measured. […] The level of MDL 100907 tracer is measured in each cortical and cerebellar sample. RO is calculated using the well-established ratio method which employs a region of high receptor density representative of total binding (frontal cortex) normalized by an area without or with very low levels of receptor (cerebellum). […]
MDL 100907 Analysis: Cortex and cerebellar samples are weighed and placed in conical centrifuge tubes on ice. […] Standards are prepared by adding known quantities of analyte to brain tissue samples from non-treated rats and processing as described above.+− […]

Assay [3] deals with 5-HT2B (Homo sapiens, UniProt P41595). Kind of assay: 5-HT2B binding (selectivity data). As to the method: as §1, §2
The target of assay [4] is H1 receptors (Homo sapiens, UniProt P35367). Kind of assay: H1 receptor binding. As to the method: as §1, §2
Assay [5] concerns the target T2, recombinant 5-HT2C receptors (human) (Homo sapiens, UniProt P28335).
T2 construct: expressed in transfected cells
The experiment in a line: 5-HT2C competition binding assay ([125I]-(±)DOI, SPA). As to the method:
[^125I]-(±)DOI binding experiments are carried out in SPA 96-well format. Membranes used in this assay are prepared from AV-12 cells stably expressing recombinant 5-HT2C receptors (human). The incubation is initiated by the addition of a mixture of WGA PVT SPA beads (0.5 mg/well, Perkin Elmer (MA, USA), RPNQ0001) and 2.5 μg membranes to assay buffer (50 mM Tris-HCl, 10 mM MgCl2, 0.5 mM EDTA, 10 μM pargyline, 0.1% ascorbic acid, pH7.4) containing 0.2 nM [[^125I]-(±)DOI and varying concentrations of the test compound (10 point concentration response curves). Non-specific binding is determined in the presence of 20 μM 1-(1-naphthyl)piperazine. Samples are incubated for 4 hr. at room temperature (22° C.) and then read in a microplate scintillation counter.
Curves are evaluated using a 4-parameter logistic nonlinear equation to obtain the concentration of competitor causing 50% inhibition of radioligand binding (IC50). Equilibrium dissociation constants (Ki) are calculated according to the equation Ki=IC50/(1+L/Kd), where L equals the concentration of radioligand used in the experiment and Kd equals the equilibrium dissociation constant of the radioligand for the receptor, determined from standard saturation analysis or homologous competition experiments. […]

For assay [6], the target named is Dopamine D1 (Homo sapiens, UniProt P21728). Kind of assay: Dopamine D1 binding. The method, then: as §1, §2
In assay [7] the target is Dopamine D2 (Homo sapiens, UniProt P14416). Kind of assay: Dopamine D2 binding. The method, then: as §1, §2
Sequence of Dopamine D2 (P14416 whole entry): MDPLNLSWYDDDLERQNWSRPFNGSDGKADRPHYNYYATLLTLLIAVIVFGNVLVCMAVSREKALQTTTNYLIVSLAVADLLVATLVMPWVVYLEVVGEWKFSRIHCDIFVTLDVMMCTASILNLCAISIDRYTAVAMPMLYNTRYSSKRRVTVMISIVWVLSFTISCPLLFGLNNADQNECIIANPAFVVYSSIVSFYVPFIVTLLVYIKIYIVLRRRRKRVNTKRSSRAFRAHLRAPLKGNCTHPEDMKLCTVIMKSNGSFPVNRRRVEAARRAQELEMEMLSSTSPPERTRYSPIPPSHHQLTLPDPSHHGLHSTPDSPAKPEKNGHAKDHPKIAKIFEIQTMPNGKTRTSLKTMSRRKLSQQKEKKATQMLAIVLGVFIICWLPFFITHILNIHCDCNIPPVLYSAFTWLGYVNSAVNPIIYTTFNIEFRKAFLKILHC

Sequence of Dopamine D1 (P21728 whole entry): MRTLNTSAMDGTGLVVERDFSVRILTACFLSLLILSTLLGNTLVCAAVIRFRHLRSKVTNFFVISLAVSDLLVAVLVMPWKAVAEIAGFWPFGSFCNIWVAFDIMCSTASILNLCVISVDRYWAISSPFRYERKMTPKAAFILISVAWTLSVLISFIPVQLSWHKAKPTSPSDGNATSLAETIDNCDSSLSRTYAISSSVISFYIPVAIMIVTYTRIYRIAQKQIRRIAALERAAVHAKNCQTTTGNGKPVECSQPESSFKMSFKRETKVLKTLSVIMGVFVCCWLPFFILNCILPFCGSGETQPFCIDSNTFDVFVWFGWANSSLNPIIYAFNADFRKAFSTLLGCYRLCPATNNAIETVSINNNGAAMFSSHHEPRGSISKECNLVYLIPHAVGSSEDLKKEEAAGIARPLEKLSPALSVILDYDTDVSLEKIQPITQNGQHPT
Sequence of 5-HT2B (P41595 whole entry, species assumed): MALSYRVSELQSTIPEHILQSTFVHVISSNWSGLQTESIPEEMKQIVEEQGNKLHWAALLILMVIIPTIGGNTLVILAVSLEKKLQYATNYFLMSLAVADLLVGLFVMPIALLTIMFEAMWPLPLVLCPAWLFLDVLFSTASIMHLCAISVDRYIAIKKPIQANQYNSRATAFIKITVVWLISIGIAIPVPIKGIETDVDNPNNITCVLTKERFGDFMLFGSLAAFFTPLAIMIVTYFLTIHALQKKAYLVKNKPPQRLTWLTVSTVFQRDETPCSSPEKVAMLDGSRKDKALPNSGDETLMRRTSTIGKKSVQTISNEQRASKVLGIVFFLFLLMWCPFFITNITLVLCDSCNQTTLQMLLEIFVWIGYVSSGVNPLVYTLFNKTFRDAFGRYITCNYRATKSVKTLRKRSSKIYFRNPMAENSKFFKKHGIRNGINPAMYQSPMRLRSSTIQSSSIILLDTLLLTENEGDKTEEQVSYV
Sequence of H1 receptors (P35367 whole entry): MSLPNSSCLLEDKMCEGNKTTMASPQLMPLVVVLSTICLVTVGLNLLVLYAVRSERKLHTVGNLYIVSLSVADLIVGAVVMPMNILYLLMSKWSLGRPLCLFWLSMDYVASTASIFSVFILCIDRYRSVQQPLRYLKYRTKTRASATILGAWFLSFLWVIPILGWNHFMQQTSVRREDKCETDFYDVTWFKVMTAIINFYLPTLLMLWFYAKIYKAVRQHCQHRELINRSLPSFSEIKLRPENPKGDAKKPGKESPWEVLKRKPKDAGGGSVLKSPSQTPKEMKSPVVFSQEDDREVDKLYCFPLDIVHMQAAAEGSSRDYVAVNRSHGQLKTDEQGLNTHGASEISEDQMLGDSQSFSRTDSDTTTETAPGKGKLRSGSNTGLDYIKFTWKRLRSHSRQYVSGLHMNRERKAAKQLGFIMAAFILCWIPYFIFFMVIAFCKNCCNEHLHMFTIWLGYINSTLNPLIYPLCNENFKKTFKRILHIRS
T2 sequence (P28335 33-458): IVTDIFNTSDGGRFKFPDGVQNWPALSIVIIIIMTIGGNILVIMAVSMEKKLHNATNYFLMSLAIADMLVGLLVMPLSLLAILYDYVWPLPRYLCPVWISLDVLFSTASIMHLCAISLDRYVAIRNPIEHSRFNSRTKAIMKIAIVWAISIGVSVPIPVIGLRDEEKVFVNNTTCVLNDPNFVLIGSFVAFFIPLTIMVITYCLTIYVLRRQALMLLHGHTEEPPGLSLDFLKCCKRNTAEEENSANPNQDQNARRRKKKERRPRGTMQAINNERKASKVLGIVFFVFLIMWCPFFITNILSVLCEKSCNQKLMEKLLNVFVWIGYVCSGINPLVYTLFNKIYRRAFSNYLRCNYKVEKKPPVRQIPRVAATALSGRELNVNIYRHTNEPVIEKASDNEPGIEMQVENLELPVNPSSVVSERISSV
T1 sequence (P14842 whole entry): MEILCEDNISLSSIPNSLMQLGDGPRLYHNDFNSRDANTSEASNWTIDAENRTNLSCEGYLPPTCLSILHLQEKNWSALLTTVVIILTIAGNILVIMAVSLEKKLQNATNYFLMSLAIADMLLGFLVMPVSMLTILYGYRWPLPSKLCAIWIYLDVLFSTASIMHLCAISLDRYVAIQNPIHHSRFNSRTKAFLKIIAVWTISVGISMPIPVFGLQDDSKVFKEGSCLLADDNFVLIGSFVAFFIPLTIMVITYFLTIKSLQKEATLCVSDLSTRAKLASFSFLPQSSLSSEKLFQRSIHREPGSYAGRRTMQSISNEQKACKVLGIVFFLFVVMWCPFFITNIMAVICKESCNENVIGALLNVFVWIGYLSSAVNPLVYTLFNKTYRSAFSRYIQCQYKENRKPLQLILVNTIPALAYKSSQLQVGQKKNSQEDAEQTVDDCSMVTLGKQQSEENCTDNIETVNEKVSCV
Sequence of Adrenergic alpha1B (P35368 whole entry): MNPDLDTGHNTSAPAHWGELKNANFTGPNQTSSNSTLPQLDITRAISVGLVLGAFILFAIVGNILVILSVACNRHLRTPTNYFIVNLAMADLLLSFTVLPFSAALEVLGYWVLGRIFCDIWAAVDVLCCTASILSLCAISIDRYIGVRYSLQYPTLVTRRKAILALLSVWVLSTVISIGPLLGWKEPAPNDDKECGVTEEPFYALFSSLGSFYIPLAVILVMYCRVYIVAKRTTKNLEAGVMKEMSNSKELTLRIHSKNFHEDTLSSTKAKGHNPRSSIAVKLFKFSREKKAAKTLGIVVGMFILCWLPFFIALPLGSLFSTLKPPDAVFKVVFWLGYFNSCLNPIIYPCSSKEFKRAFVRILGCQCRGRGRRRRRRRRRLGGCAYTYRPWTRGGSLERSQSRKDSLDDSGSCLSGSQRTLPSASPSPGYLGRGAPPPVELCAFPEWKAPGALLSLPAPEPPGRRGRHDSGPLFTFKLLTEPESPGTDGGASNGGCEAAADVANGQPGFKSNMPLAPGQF

Take `Cc1ccc2c(c1)Oc1sc(SC(C)C)cc1C(N1CCN(CC(C)(C)C(=O)O)CC1)=N2` [Example 1, 3-[4-(2-isopropylsulfanyl-8-methyl-thieno[2,3-b][1,5]benzoxazepin-4-yl)piperazin-1-yl]-2,2-dimethyl-propanoic acid]: the inhibition constant (Ki) in assay [1] was above 15800 nM; in assay [3] it was 763 nM; in assay [4] it was 599 nM; in assay [5] it was 359 nM; in assay [6], 2640 nM; in assay [7], above 7660 nM. This molecule also displayed an ED50 in assay [2] of 0.54 mg/kg.

In general, Ki refers to a dissociation constant, usually derived from enzyme kinetics or from competition with a known ligand. As usually defined, the ED50 is the midpoint of the dose-response relation. A higher ED50 goes with weaker potency.
